According to patent US8106045B2, “2-morpholino-4-pyrimidone compound” (Mitsubishi Tanabe Pharma Corporation, priority 2004, dated 2012):

Molecular target: T1, bovine cerebral TPK1 (Bos taurus, UniProt A0A3Q1MT31)
T1 construct: bovine cerebral TPK1; from tissue; host or cells: bovine cerebrum (brain)
Test: Inhibitory activity against P-GS1 phosphorylation by bovine cerebral TPK1
Format: biochemical
Settings: 41.7 μM [γ-32P] ATP, 25° C. for 2 hours
Method: Experiment 1: Inhibitory Activity of the Medicament of the Present Invention Against P-GS1 Phosphorylation by Bovine Cerebral TPK1
A mixture containing 100 mM MES-sodium hydroxide (pH 6.5), 1 mM magnesium acetate, 0.5 mM EGTA, 5 mM B-mercaptoethanol, 0.02% Tween 20, 10% glycerol, 12 μg/ml P-GS1, 41.7 μM [γ-^32P] ATP (68 kBq/ml), bovine cerebral TPK1 and a compound shown in Table (a final mixture contained 1.7% DMSO deriving from a solution of a test compound prepared in the presence of 10% DMSO) was used as a reaction system. The phosphorylation was started by adding ATP, and the reaction was conducted at 25° C. for 2 hours, and then stopped by adding 21% perchloric acid on ice cooling. The reaction mixture was centrifuged at 12,000 rpm for 5 minutes and adsorbed on P81 paper (Whatmann), and then the paper was washed four times with 75 mM phosphoric acid, three times with water and once with acetone. The paper was dried, and the residual radioactivity was measured using a liquid scintillation counter.

T1 sequence (A0A3Q1MT31 1-419): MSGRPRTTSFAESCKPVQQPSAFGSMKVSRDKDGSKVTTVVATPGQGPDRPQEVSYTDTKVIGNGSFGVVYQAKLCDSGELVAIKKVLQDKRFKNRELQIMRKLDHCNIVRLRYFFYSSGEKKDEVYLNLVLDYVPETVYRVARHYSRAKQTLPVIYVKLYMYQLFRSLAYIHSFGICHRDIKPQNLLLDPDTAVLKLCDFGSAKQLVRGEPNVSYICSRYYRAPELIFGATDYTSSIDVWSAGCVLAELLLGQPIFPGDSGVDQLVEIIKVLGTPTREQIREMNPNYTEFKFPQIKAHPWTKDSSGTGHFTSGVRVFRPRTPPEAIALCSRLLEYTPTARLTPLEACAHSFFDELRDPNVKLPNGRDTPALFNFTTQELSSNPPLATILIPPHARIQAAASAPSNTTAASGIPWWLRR

With Cn1c(N2CCO[C@@H](c3ccc(N4CCC(N5CCCC5)CC4)cc3)C2)nc(-c2ccncc2)cc1=O [compound 6] as the compound, how does the IC50 read?
Its IC50 is 3.4 nM.

For Cn1c(N2CCO[C@@H](c3ccc(OCCCN4CCCC4)cc3)C2)nc(-c2ccncn2)cc1=O [Compound No. 202, 2-((2S)-2-(4-(3-(pyrrolidin-1-yl)propyloxy)phenyl)morpholine-4-yl)-3-methyl-6-(pyrimidin-4-yl)-pyrimidin-4-one], which IC50 is on record?
Its IC50 is 0.43 nM.

Which IC50 does the source give for CN(c1ccc([C@H]2CN(c3nc(-c4ccncn4)cc(=O)n3C)CCO2)cc1)[C@@H]1CCOC1 [Compound No. 091, 2-((2S)-2-(4-(N-methyl-N-((3R)-tetrahydrofuran-3yl)amino)phenyl)morpholin-4-yl)-3-methyl-6-(pyrimidin-4-yl)-3H-pyrimidin-4-one] here?
Its IC50 is 6.1 nM.

Which IC50 does the source give for CN(C)CC(=O)Nc1ccc([C@H]2CN(c3nc(-c4ccncn4)cc(=O)n3C)CCO2)cc1 [Compound No. 220, N^2,N^2-Dimethyl-N^1-{4-[(2S)-4-(1-methyl-6-oxo-1,6-dihydro-4,4′-bipyrimidin-2-yl)morpholin-2-yl]phenyl}glycinamide] here?
Its IC50 is 0.48 nM.

How did the IC50 turn out when COC(=O)Nc1ccc([C@H]2CN(c3nc(-c4ccncc4)cc(=O)n3C)CCO2)cc1 [Compound No. 231, Methyl (4-((2S)-4-(3-methyl-4-oxo-6-(pyridin-4-yl)-3H-pyrimidin-2-yl)morpholin-2-yl)-phenyl)carbamate] was run?
Its IC50 is 5.8 nM.

How did the IC50 turn out when Cn1c(N2CCO[C@@H](c3ccc(NC(=O)CN4CCN(c5ccccc5)CC4)cc3)C2)nc(-c2ccncc2)cc1=O [compound 100] was run?
The IC50 was 5.2 nM.

Which IC50 does the source give for Cn1c(N2CCO[C@@H](c3ccc(NC(=O)c4ccccc4)cc3)C2)nc(-c2ccncc2)cc1=O [compound 70] here?
The IC50 was 5.1 nM.

With Cn1c(N2CCO[C@@H](c3ccc(Nc4ccncc4)cc3)C2)nc(-c2ccncc2)cc1=O [compound 50] as the compound, how does the IC50 read?
Its IC50 is 4.8 nM.

For Cn1c(N2CCO[C@@H](c3ccc(C(=O)NCCO)cc3)C2)nc(-c2ccncn2)cc1=O [Compound No. 210, N-(2-hydroxy-ethyl)-4-[(2S)-4-(1-methyl-6-oxo-1,6-dihydro-[4,4′]bipyrimidinyl-2-yl)-morpholin-2-yl]-benzamide], which IC50 is on record?
The IC50 was 5.4 nM.

With CN(C)C(=O)Nc1ccc([C@H]2CN(c3nc(-c4ccncc4)cc(=O)n3C)CCO2)cc1 [Compound No. 237, 1,1-Dimethyl-3-{4-[4-(1-methyl-6-oxo-4-pyridin-4-yl-1,6-dihydro-pyrimidin-2-yl)-morpholin-2-yl]-phenyl}-urea] as the compound, how does the IC50 read?
Its IC50 is 9.7 nM.
